Data reported in patent US10954269B2, “Anti-inflammatory tripeptides” (Dr. August Wolff Gmbh & Co. KG Arzneimittel, priority 2013, dated 2021).

What was measured:
primary human T-cells = assay: Cytokine secretion on protein level in activated primary human T-cells (13-plex FACS / Luminex, supernatant); type: cell-based; conditions: substance 10^−9M
Protocol: (§1) Primary T-cells were isolated from peripheral blood from healthy volunteers and from secondary lymphatic organs from naïve C57BL/6 mice, respectively. The cells were stimulated with phorbol-12-myristate-13-acetate (PMA)/Ionomycin and interferon-gamma (IFN-γ), respectively, for 48 h to activate the cells. The activated cells release pro-inflammatory cytokines. In parallel a human (HaCaT) keratinocyte cell line was activated with PMA/Ionomycin and IFN-γ, respectively, too. […] At the same time release of anti-inflammatory IL-10 was inhibited. Two days after addition of PMA/Ionomycin and IFN-γ, respectively, the induction of IL-1 secretion was determined in the supernatant for proving that the cells are activated. […] The anti-inflammatory properties of the tripeptides were determined 48 h and 72 h following stimulation. A 13-plex-system based FACS analysis was used for showing the reduced secretion of pro-inflammatory cytokines in the supernatant. Data for IL-1, IL-2, IL-6, IL-12p70 IL-17, IFN-γ and TNF-α are considered to be most relevant. Thus, analysis of the anti-inflammatory properties of the tripeptides is preferably based on the results obtained for these analytes. […] Using this method the gene expression of pro-inflammatory markers like IL-6, IL-17, IFN-γ and TNF-α was determined.
(§2) In a third experiment murine and human T cells and HaCaT cells were stimulated with PMA/Ionomycin and treated with Examples 14, 15, 16 and 17 at 10^−7 M, 10^−9 M and 10^−11 M. Cytokine concentrations (IFN-γ, IL-17 and IL-10 for T cells and IFN-γ for HaCat) were assessed in the supernatants using the Luminex technology. Expression of genes coding for Il-1β, IL-6 and TNF-α was determined. […] Moreover, concentrations of pro-inflammatory cytokines IFN-γ and IL-17 was reduced in the supernatants whereas the concentration of anti-inflammatory cytokine IL-10 was increased. […]
(§3) For the biological assay two human cell lines of different origin were chosen to allow for translation of the results obtained. A HaCaT cell is a cell type belonging to an immortal human keratinocyte line used in scientific research. Its use in research allows for the characterization of human keratinocyte using a model that is reproducible and representing a human epithelial cell line. In contrast human T-lymphocytes (T-cells) are a type of lymphocyte (itself a type of white blood cell) that play a central role in cell-mediated inflammation/immunity.

[1] = tested on: human keratinocyte cell line (HaCaT); assay: Cytokine secretion on protein level in activated human keratinocyte cell line HaCaT (13-plex FACS / Luminex, supernatant); type: cell-based; conditions: substance 10^−9M
Protocol: as §1, §2, §3

[2] = primary human T-cells stimulated with IFN-γ
[3] = primary human T-cells stimulated with PBS
[4] = primary human T-cells stimulated with PMA/Ionomycin

## H-(L)-Lys-(L)-Pro-Alb-NH2 [Example 10]
Primary human T-cells; [2]
  IL-1 cytokine concentration: 139.49 pg/mL
  IL-2 cytokine concentration: 231.83 pg/mL
  IL-4 cytokine concentration: 160.97 pg/mL
  IL-5 cytokine concentration: 0 pg/mL
  IL-6 cytokine concentration: 105.21 pg/mL
  IL-9 cytokine concentration: 0 pg/mL
  IL-10 cytokine concentration: 0 pg/mL
  IL-12p70 cytokine concentration: 0 pg/mL
  IL-13 cytokine concentration: 162.81 pg/mL
  IL-17 cytokine concentration: 250.1 pg/mL
  IL-22 cytokine concentration: 0 pg/mL
  TNF-α cytokine concentration: 0 pg/mL
Primary human T-cells; [3]
  IL-1 cytokine concentration: 0 pg/mL
  IL-2 cytokine concentration: 0 pg/mL
  IL-4 cytokine concentration: 0 pg/mL
  IL-5 cytokine concentration: 0 pg/mL
  IL-6 cytokine concentration: 216.7 pg/mL
  IL-9 cytokine concentration: 23.18 pg/mL
  IL-10 cytokine concentration: 48.86 pg/mL
  IL-12p70 cytokine concentration: 0 pg/mL
  IL-13 cytokine concentration: 0 pg/mL
  IL-17 cytokine concentration: 0 pg/mL
  IL-22 cytokine concentration: 0 pg/mL
  INF-α cytokine concentration: 0 pg/mL
  TNF-α cytokine concentration: 21.65 pg/mL
Primary human T-cells; [4]
  IL-1 cytokine concentration: 878.53 pg/mL
  IL-2 cytokine concentration: 5107.74 pg/mL
  IL-4 cytokine concentration: 179.62 pg/mL
  IL-5 cytokine concentration: 416.25 pg/mL
  IL-6 cytokine concentration: 1255.58 pg/mL
  IL-9 cytokine concentration: 461.98 pg/mL
  IL-10 cytokine concentration: 729.43 pg/mL
  IL-12p70 cytokine concentration: 0 pg/mL
  IL-13 cytokine concentration: 1183.46 pg/mL
  IL-17 cytokine concentration: 2234.39 pg/mL
  IL-22 cytokine concentration: 0 pg/mL
  INF-α cytokine concentration: 11538.53 pg/mL
  TNF-α cytokine concentration: 4132.03 pg/mL
[1]; HaCaT stimulated with IFN-γ
  IL-1 cytokine concentration: 0 pg/mL
  IL-2 cytokine concentration: 0 pg/mL
  IL-4 cytokine concentration: 183.12 pg/mL
  IL-5 cytokine concentration: 88.64 pg/mL
  IL-6 cytokine concentration: 346.73 pg/mL
  IL-9 cytokine concentration: 0 pg/mL
  IL-10 cytokine concentration: 0 pg/mL
  IL-12p70 cytokine concentration: 0 pg/mL
  IL-13 cytokine concentration: 1904.09 pg/mL
  IL-17 cytokine concentration: 189.1 pg/mL
  IL-22 cytokine concentration: 0 pg/mL
  TNF-α cytokine concentration: 0 pg/mL
[1]; HaCaT stimulated with PBS
  IFN-γ cytokine concentration: 469.17 pg/mL
  IL-1 cytokine concentration: 170.16 pg/mL
  IL-2 cytokine concentration: 0 pg/mL
  IL-4 cytokine concentration: 218.04 pg/mL
  IL-5 cytokine concentration: 0 pg/mL
  IL-6 cytokine concentration: 125.38 pg/mL
  IL-9 cytokine concentration: 5.28 pg/mL
